This experiment can be described thus: Inhibition of calcium ionophore (A-23187)-stimulated LTB4 formation in human neutrophil assay.
Consider `C/C(CCCCCC(=O)O)=N\OC(c1ccc(OCc2ccc3ccccc3n2)cc1)C1CCCCC1` (stereo not given) [7-{Cyclohexyl-[4-(quinolin-2-ylmethoxy)-phenyl]-methoxyimino}-octanoic acid (0.25H2O)], for which the IC50 (commonly the point on the concentration scale where inhibition reaches its midpoint) turned out to be 17 nM.

On to `O=C(O)/C(=N\OC(c1ccc(OCc2ccc3ccccc3n2)cc1)C1CCCCC1)c1cccs1` (stereo not given), for which the IC50 is 23 nM. Take `O=C(O)/C=N/OC(c1ccc(OCc2ccc3ccccc3n2)cc1)C1CCCCCC1` (stereo not given) [{Cycloheptyl-[4-(quinolin-2-ylmethoxy)-phenyl]-methoxyimino}-acetic acid]: the IC50 was found to be 18 nM.

Take `CC(C)(C)SC/C(=N\OC(c1ccc(OCc2ccc3ccccc3n2)cc1)C1CCCCC1)C(=O)O` (stereo not given) [3-tert-Butylsulfanyl-2-{cyclohexyl-[4-(quinolin-2-ylmethoxy)-phenyl]-methoxyimino}-propionic acid]: the IC50 came to 120 nM. In the case of `CCCCC(CCCC)C(O/N=C(\C)C(=O)O)c1ccc(OCc2ccc3ccccc3n2)cc1` (stereo not given) [2-{2-Butyl-1-[4-(quinolin-2-ylmethoxy)-phenyl]-hexyloxyimino}-propionic acid (2H2O)] it was 14 nM. Turning to `O=C(O)/C=N/OC(c1ccc(OCc2nc3ccccc3s2)cc1Cl)C1CCCCC1` (stereo not given) [{[4-(Benzothiazol-2-ylmethoxy)-2-chloro-phenyl]-cyclohexyl-methoxyimino}-acetic acid], the IC50 was found to be 28 nM. In the case of `O=C(O)/C=N/OC(c1ccc(OCc2nc(-c3ccccc3)cs2)cc1)C1CCCCC1` (stereo not given) [{Cyclohexyl-[4-(4-phenyl-thiazol-2-ylmethoxy)-phenyl]-methoxyimino}-acetic acid (1.25H2O)] it was 21 nM; in that of `O=C(O)/C=N/OC(c1ccc(OCc2nc3ccccc3s2)cc1)C1CCCCC1` (stereo not given) [{[4-(Benzothiazol-2-ylmethoxy)-phenyl]-cyclohexyl-methoxyimino}-acetic acid], 60 nM. In the case of `CC(C)(C)Sc1c(CC(C)(C)C(=O)O)n(Cc2ccc(Cl)cc2)c2ccc(OCc3ccc4ccccc4n3)cc12` [MK-591] it was 8 nM; in that of `O=C(O)/C(Cc1ccc(O)cc1)=N/OC(c1ccc(OCc2ccc3ccccc3n2)cc1)C1CCCCC1` (stereo not given) [2-{Cyclohexyl-[4-(quinolin-2-ylmethoxy)-phenyl]-methoxyimino}-3-(4-hydroxy-phenyl)-propionic acid], 43 nM. For the molecule `C/C(=N\OC(c1ccc(OCc2ccc3ccccc3n2)cc1)C1CCCC1)C(=O)O` (stereo not given) [2-{Cyclopentyl-[4-(quinolin-2-ylmethoxy)-phenyl]-methoxyimino}-propionic acid], the IC50 came to 16 nM.

In the case of `C/C(=N\OC(CC(C)(C)c1ccccc1)c1ccc(OCc2ccc3ccccc3n2)cc1)C(=O)O` (stereo not given) [2-{3-Methyl-3-phenyl-1-[4-(quinolin-2-ylmethoxy)-phenyl]-butoxyimino}-propionic acid (0.25H2O)], the IC50 was found to be 22 nM. For `O=C(O)/C=N/OC(c1ccc(-c2ccc3ccccc3n2)cc1)C1CCCCC1` (stereo not given) [[Cyclohexyl-(4-quinolin-2-yl-phenyl)-methoxyimino]-acetic acid(0.25H2O)] the value was 1200 nM; for `C/C(=N\OC(c1cc(OCc2ccc3ccccc3n2)on1)C1CCCCC1)C(=O)O` (stereo not given) [2-{Cyclohexyl-[5-(quinolin-2-ylmethoxy)-isoxazol-3-yl]-methoxyimino}-propionic acid], 490 nM; for `C/C(=N\OC(CCCc1ccc(F)cc1)c1ccc(OCc2ccc3ccccc3n2)cc1)C(=O)O` (stereo not given) [2-{4-(4-Fluoro-phenyl)-1-[4-(quinolin-2-ylmethoxy)-phenyl]-butoxyimino}-propionic acid], 9 nM. In the case of `C/C(CCCC(=O)O)=N\OC(c1ccc(OCc2ccc3ccccc3n2)cc1)C1CCCCC1` (stereo not given) [5-{Cyclohexyl-[4-(quinolin-2-ylmethoxy)-phenyl]-methoxyimino}-hexanoic acid], the IC50 was 59 nM. On to `CC(C)(CC(O/N=C/C(=O)O)c1ccc(OCc2ccc3ccccc3n2)cc1)c1ccccc1` (stereo not given) [{3-Methyl-3-phenyl-1-[4-(quinolin-2-ylmethoxy)-phenyl]-butoxyimino}-acetic acid], for which the IC50 was determined as 10 nM. In the case of `O=C(O)/C=N/OC(c1ccc(OCc2ccc3ccccc3n2)cc1)C1C2CC3CC(C2)CC1C3` (stereo not given) [{Adamantan-2-yl-[4-(quinolin-2-ylmethoxy)-phenyl]-methoxyimino}-acetic acid] it was 21 nM; in that of `C/C(=N\OC(c1ccc(OCc2cscn2)cc1)C1CCCCC1)C(=O)O` (stereo not given) [2-{Cyclohexyl-[4-(thiazol-4-ylmethoxy)-phenyl]-methoxyimino}-propionic acid (0.25H2O)], 360 nM. As to `O=C(O)/C=N/OC(c1ccc(OCc2cc(-c3ccccc3)on2)cc1)C1CCCCC1` (stereo not given) [{Cyclohexyl-[4-(5-phenyl-isoxazol-3-ylmethoxy)-phenyl]-methoxyimino}-acetic acid], the IC50 came to 140 nM. For `C/C(=N\OC(c1ccc(OCc2ccc3cc(F)ccc3n2)cc1)C1CCCCC1)C(=O)O` (stereo not given) [2-{Cyclohexyl-[4-(6-fluoro-quinolin-2-ylmethoxy)-phenyl]-methoxyimino}-propionic acid] the value was 20 nM; for `C/C(=N\OC(c1ccc(OCc2ccc3ccccc3n2)cc1)C1CCCCCC1)C(=O)O` (stereo not given) [2-{Cycloheptyl-[4-(quinolin-2-ylmethoxy)-phenyl]-methoxyimino}-propionic acid (0.5H2O)], 13 nM. In the case of `O=C(O)/C=N/OC(c1ccc(CCc2ccc3ccccc3n2)cc1)C1CCCCC1` (stereo not given) [{Cyclohexyl-[4-(2-quinolin-2-yl-ethyl)-phenyl]-methoxyimino}-acetic acid (0.25H2O)] it was 290 nM. Turning to `O=C(O)/C=N/OC(c1ccc2cc(OCc3ccc4ccccc4n3)ccc2c1)C1CCCCC1` (stereo not given) [{Cyclohexyl-[6-(quinolin-2-ylmethoxy)-naphthalen-2-yl]-methoxyimino}-acetic acid], the IC50 is 56 nM. In the case of `O=C(O)/C(=N/OC(c1ccc(OCc2ccc3ccccc3n2)cc1)C1CCCCC1)c1cccs1` (stereo not given) [(E)-{Cyclohexyl-[4-(quinolin-2-ylmethoxy)-phenyl]-methoxyimino}-thiophen-2-yl-acetic acid (2.5H2O)], the IC50 came to 21 nM. Regarding `O=C(O)/C=N/OC(c1ccc(OCc2ccc3ccccc3n2)cc1)C1CCCCC1` (stereo not given) [{Cyclohexyl-[4-(quinolin-2-ylmethoxy)-phenyl]-methoxyimino}-acetic acid], the IC50 was 17 nM. For the molecule `C/C(=N\OC(c1ccc(OCc2ccc3ccccc3n2)c(Cl)c1)C1CCCCC1)C(=O)O` (stereo not given) [2-{[3-Chloro-4-(quinolin-2-ylmethoxy)-phenyl]-cyclohexyl-methoxyimino}-propionic acid], the IC50 was determined as 27 nM. In the case of `O=C(O)[C@@H](c1ccc(OCc2ccc3ccccc3n2)cc1)C1CCCC1` [(R)-Cyclopentyl-[4-(quinolin-2-ylmethoxy)-phenyl]-acetic acid] it was 60 nM. For the molecule `O=C(O)/C(CSCCO)=N/OC(c1ccc(OCc2ccc3ccccc3n2)cc1)C1CCCCC1` (stereo not given) [2-{Cyclohexyl-[4-(quinolin-2-ylmethoxy)-phenyl]-methoxyimino}-3-(2-hydroxy-ethylsulfanyl)-propionic acid], the IC50 was 181 nM. Regarding `C/C(=N\OC(c1ccc(OCc2nc3ccccc3s2)cc1Cl)C1CCCCC1)C(=O)O` (stereo not given) [2-{[4-(Benzothiazol-2-ylmethoxy)-2-chloro-phenyl]-cyclohexyl-methoxyimino}-propionic acid], the IC50 is 28 nM.
